Experiments:
[1] = Heat stability of Melatonin adsorbed or linked to a substrate; format: physicochemical
Description: In the practice of the invention, the coadministration, adsorption or linking of Melatonin to the bone graft substrate preferably involves Melatonin per se, although the use of the precursors or metabolites of Melatonin (including but not limited to 5-hydroxytryptophan (5OHTrp), 5-hydroxytryptamine (5HT), N-acetyl-5-hydroxytryptamine (NA5OHT) or 6-hydroxymelatonin (6OHMEL)) still falls within the scope of this invention albeit in a less preferred way.

mesenchymal stem cells = details: cited from earlier work

Compound | stability to autoclaving ([1]; adsorbed or linked to substrate, autoclaved such as at 180° C.) | stability to sintering ([1]; sintering temperatures used to make bone grafts and implants) | spreading of the cells (mesenchymal stem cells; mesenchymal stem cells) | attachment of mesenchymal stem cells (mesenchymal stem cells; substrates: hydroxyapatite, titanium, polymer scaffolds)
COc1ccc2[nH]cc(CCNC(C)=O)c2c1 [Melatonin, N-acetyl-5-methoxytryptamine] | surviving the autoclaving process intact | cannot survive | – | –
arg-gly-asp [RDG peptide] | – | – | does not enhance the spreading | can increase the attachment

Source: patent publication US8535706B2, “Bone implant” (Duquesne University of the Holy Spirit, priority 2010, dated 2013)
